This series in a line: Monkey single dose pharmacokinetics. Format: in vivo. The following applies: male, plasma, cynomolgus monkey, IV; for Vd: read-out: Vss; for half-life: read-out: t½ (converted). As to the method: Non-naïve Male Cynomolgus Monkey (2-5 years of age, body weight 2-5 kg) used in this study were obtained from Topgene Biotechnology. All animals for IV administration had free access to food and water; all animals for PO were fasted overnight prior to dosing and were fed approximately 6 hours after dosing. The IV dose solution was prepared in 10% DMA/[…] solution (40% w/v aqueous HPβCD) at a concentration of 1.0 mg/mL. The oral dose suspension was prepared by suspending the compound in 0.5% HPMC/0.1% Tween 80 in distilled water at a concentration of 0.2 mg/mL. Concentrations of IV and PO doses were measured at the end of the study. PK parameters were calculated using the nominal dose values if the measured values were within 20% of the nominal values. Blood samples were collected by venipuncture of peripheral veins except the dosing vein at pre-dose, 5 15, 30 min, 1, 2, 4, 6, 8, 24 and 48 h post-dose. Blood samples were centrifuged and resultant plasma was frozen for bioanalysis. Plasma samples were stored at −80° C. before analysis. Plasma samples were analyzed for compound concentrations using the LC/MS/MS method. Briefly, a 50 μL aliquot of each plasma sample was mixed with 100 μL of acetonitrile that contained an internal standard. The mixture was vortexed and centrifuged. Ten (10) μL of the resulting solution was injected onto a reverse-phase C18 column and the resultant peaks detected on a LC/MS/MS equipped with a turbo ionspray ionization source. Sample concentrations below the limit of quantification (BLQ) were treated as zero for PK calculations. PK parameters were estimated from individual animals using noncompartmental analysis of the concentration-time data (Phoenix WinNonLin software, version 64; Pharsight, Mountain View, CA). The elimination rate constant (k) was calculated as the absolute value of the slope of the linear regression of logarithm (log) of the concentration versus time for the last three data points of the concentration-time profiles. Apparent elimination half-life (t1/2) values were calculated as ln(2)/k. Area under the concentration-time curve (AUC) values were estimated using linear trapezoidal method. AUCt values were calculated from the dosing time to the last measurable concentration. AUC∞ values were calculated as the sum of the corresponding AUCt and the ratio of the last detectable concentration divided by k. Plasma clearance (CL) was calculated from Dose/AUC∞. Mean resident time extrapolated to infinity (MRT∞) was estimated by moment analysis. Vss was calculated from MRT∞×CL. Maximum concentration (Cmax) and time to reach Cmax (tmax) were recorded as observed. As this was a cross-over study, bioavailability was calculated dAUC∞,po/dAUC∞,iv×100% where dAUC was the dose normalized AUC value from the same animal given IV and PO dose. Data for compounds tested are provided in Table E. Compounds tested were prepared in accordance with the synthetic procedures described herein.

For `CC(C)N1CC(=O)N(Cc2ccc(C(F)(F)F)cc2)C2(CN(c3cccnn3)C2)C1=O` [Compound 13, 8-isopropyl-2-(pyridazin-3-yl)-5-(4-(trifluoromethyl)benzyl)-2,5,8-triazaspiro[3.5]nonane-6,9-dione], the clearance (as a rule, the volume of plasma or blood freed of the substance per unit of time) was determined as 25.8 mL/min/kg; the Vd is 3.98 L/kg; the half-life was 2.05 h.

Consider `C[C@H]1CC[C@H](N2CC(=O)N(Cc3ccc(Cl)cc3)C3(CN(C(N)=O)C3)C2=O)CC1` [Compound 18, 5-(4-chlorobenzyl)-8-((1r,4r)-4-methylcyclohexyl)-6,9-dioxo-2,5,8-triazaspiro[3.5]nonane-2-carboxamide], for which the clearance came to 7.91 mL/min/kg, the Vd was 6.08 L/kg and the half-life is 10.9 h.

The values above are taken from patent publication US12286437B2, “Cardiac sarcomere inhibitors” (Cytokinetics, Inc., priority 2021, dated 2025).
